# Test results: ChEMBL document CHEMBL1126430, “The role of arginine in interactions of microcystins with protein phosphatases 1 and 2a” (Bioorg Med Chem Lett, 1992)
# Starred links: 1 amine or outer side, 2 acyl side, 3 side chain; linkers in the order of their positions; H or OH if unused. Positions of bridges follow the written chain, without caps; N, C: chain ends. Non-standard residues stand in square brackets, D forms with d. Residues, ends and D or L forms follow the SMILES beside them. Adda = CO[C@@H](Cc1ccccc1)[C@@H](C)/C=C(C)/C=C/[C@H](N[*:1])[C@H](C)C(=O)[*:2]; dAsp(3S-Me) = C[C@H](C(=O)[*:3])[C@@H](N[*:1])C(=O)[*:2]; d(γGlu) = O=C(O)[C@@H](CCC(=O)[*:2])N[*:1]; NMeDha = C=C(NC)C(=O)O
# Key:
# [1] = Effective dose that causes 50 % inhibition of protein phosphatase 2A (PP2A), isolated from mouse skin
# [2] = Compound was evaluated for the ability to inhibit dephosphorylation of [32P]phosphorylase by Protein phosphatase 1
# [3] = Compound was evaluated for the ability to inhibit specific [3H]-okadaic acid binding to Protein phosphatase 1
# [4] = Compound was evaluated for the ability to inhibit dephosphorylation of [32P]phosphorylase by protein phosphatase 2A (PP2A)
# [5] = Compound was evaluated for the ability to inhibit specific [3H]-okadaic acid binding to protein phosphatase 2A (PP2A)
Structure (SMILES),ED50 [1],ED50 [2],ED50 [3],ED50 [4],ED50 [5]
CC=C1C(=O)N[C@@H](C(=O)O)[C@H](C)C(=O)N[C@@H](CCCNC(=N)N)C(=O)N[C@@H](/C=C/C(C)=C/[C@H](C)[C@H](Cc2ccccc2)OC)[C@H](C)C(=O)N[C@@H](C(=O)O)CCC(=O)N1C,900 pM,–,–,–,–
C=C1C(=O)N[C@H](C)C(=O)N[C@@H](CC(C)C)C(=O)N[C@@H](C(=O)O)[C@H](C)C(=O)N[C@@H](C)C(=O)N[C@@H](/C=C/C(C)=C/[C@H](C)[C@H](Cc2ccccc2)OC)[C@H](C)C(=O)N[C@@H](C(=O)O)CCC(=O)N1C (A[Adda][d(γGlu)][NMeDha][dA]L[dAsp(3S-Me)]-OH; lactam N-7),–,900 pM,10600 pM,380 pM,10000 pM
C=C1C(=O)N[C@H](C)C(=O)N[C@@H](CC(C)C)C(=O)N[C@@H](C(=O)O)[C@H](C)C(=O)N[C@@H](CCCNC(=N)N)C(=O)N[C@@H](/C=C/C(C)=C/[C@H](C)[C@H](Cc2ccccc2)OC)[C@H](C)C(=O)N[C@@H](C(=O)O)CCC(=O)N1C (R[Adda][d(γGlu)][NMeDha][dA]L[dAsp(3S-Me)]-OH; lactam N-7),800 pM,440 pM,7800 pM,320 pM,5200 pM
